# Assay results published in patent US7304174B2, “CaSR antagonist” (Japan Tobacco Inc., priority 2003, dated 2007).
# Columns and labels:
# [1] = system: bone resorption; assay: Concomitant administration of test compound and estrogen: bone resorption marker blood ICTP; type: in vivo, ovariectomized rats; settings: day 13, exclusive administration (Group B estradiol 10 μg/kg s.c.; Group C Example 1-1 3 mg/kg oral), mean ± S.D., n = 5
# Description: The 13-week-old ovariectomized rats were divided into 4 groups of a control group (Group A), an estrogen administration group (Group B), a test compound administration group (Group C), and a test compound and estrogen concomitant administration group (Group D). One sham control group (E group) subjected to a sham surgery was also established. Estradiol was dissolved in 5% benzyl alcohol-corn oil and subcutaneously administered to an estrogen administration groups (Group B and Group D) at the dose of 10 μg/kg. 5% Benzyl alcohol-corn oil was subcutaneously administered to groups (Group A and Group C) free from administration of estrogen. The compound of Example 1-1 was suspended in 0.5% methyl cellulose solution and orally administered to groups (Group C and Group D) to be administered with the test compound at the dose of 3 mg/kg. As regards the groups (Group A and Group B) free from administration of the test compound, 0.5% methyl cellulose solution was orally administered. On day 13 from the start of the administration, the blood was drawn in each group from the tail vein, and serum was obtained. ICTP, which is a blood bone resorption marker, was measured using a commercially available ELISA kit (“RatLaps ELISA kit”, Nordic Bioscience Diagnostics).
# [2] = system: PTH secretion; assay: Concomitant administration of test compound and estrogen: blood PTH with time; type: in vivo, ovariectomized rats
# Description: The 13-week-old ovariectomized rats were divided into 4 groups of a control group (Group A), an estrogen administration group (Group B), a test compound administration group (Group C), and a test compound and estrogen concomitant administration group (Group D). One sham control group (E group) subjected to a sham surgery was also established. Estradiol was dissolved in 5% benzyl alcohol-corn oil and subcutaneously administered to an estrogen administration groups (Group B and Group D) at the dose of 10 μg/kg. 5% Benzyl alcohol-corn oil was subcutaneously administered to groups (Group A and Group C) free from administration of estrogen. The compound of Example 1-1 was suspended in 0.5% methyl cellulose solution and orally administered to groups (Group C and Group D) to be administered with the test compound at the dose of 3 mg/kg. As regards the groups (Group A and Group B) free from administration of the test compound, 0.5% methyl cellulose solution was orally administered.
# In addition, blood was drawn with time for the measurement of blood PTH at day 16 of administration. The blood was drawn in each group from the tail vein immediately before oral administration and 0.25, 0.5, 1, 2 and 4 hr later, and serum was obtained. For serum PTH measurement, a commercially available ELISA kit (“rat intact PTH ELISA kit”, Immutopics) was used.
# [3] = molecular target: T1, human calcium receptor (Homo sapiens, UniProt P41180); assay: Evaluation of antagonistic action on calcium receptor using reporter gene (luciferase); type: cell-based; settings: transformed rat adrenal derived cells, 5 mM calcium chloride, culture 4 hrs, luciferase activity; read-out: Reporter gene assay (IC50, concentration showing 50% inhibitory rate)
# T1 construct: expressed in transfected cells; host or cells: cell strain derived from rat adrenal, co-transformed with luciferase cDNA
# T1 sequence (P41180 20-1078): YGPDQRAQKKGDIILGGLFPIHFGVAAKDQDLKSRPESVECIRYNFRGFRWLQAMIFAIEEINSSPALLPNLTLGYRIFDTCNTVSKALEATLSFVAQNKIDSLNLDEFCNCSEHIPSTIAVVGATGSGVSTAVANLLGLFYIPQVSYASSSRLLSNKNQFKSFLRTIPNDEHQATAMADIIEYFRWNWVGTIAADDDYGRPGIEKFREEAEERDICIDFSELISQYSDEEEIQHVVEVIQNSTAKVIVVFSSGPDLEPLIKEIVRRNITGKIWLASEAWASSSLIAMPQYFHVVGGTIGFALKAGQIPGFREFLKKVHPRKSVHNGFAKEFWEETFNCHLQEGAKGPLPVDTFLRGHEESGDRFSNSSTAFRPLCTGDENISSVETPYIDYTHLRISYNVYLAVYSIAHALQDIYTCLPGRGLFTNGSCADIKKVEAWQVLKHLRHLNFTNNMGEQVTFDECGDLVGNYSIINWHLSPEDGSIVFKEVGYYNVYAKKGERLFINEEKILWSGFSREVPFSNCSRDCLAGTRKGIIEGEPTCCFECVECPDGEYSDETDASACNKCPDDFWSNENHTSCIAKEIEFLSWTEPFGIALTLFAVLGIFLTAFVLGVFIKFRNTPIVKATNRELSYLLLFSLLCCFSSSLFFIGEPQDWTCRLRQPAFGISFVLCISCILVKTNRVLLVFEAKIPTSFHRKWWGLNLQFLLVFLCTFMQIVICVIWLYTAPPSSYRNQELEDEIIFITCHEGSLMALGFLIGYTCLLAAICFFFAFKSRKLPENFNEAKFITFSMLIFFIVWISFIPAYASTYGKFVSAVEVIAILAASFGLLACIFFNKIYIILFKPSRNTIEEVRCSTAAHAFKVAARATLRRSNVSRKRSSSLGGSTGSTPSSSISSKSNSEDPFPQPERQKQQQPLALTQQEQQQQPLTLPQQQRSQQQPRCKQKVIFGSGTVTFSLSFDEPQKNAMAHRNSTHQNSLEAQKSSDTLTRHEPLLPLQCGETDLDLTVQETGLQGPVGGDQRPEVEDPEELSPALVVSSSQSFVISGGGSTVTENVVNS
# Procedure, shortened: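 Rat adrenal-derived cells transfected with luciferase and human calcium receptor cDNA, in F12 with 0.5% dialyzed horse serum and 0.25% dialyzed fetal bovine serum. Luciferase luminescence gave % inhibition vs control and blank; IC50 at 50% inhibition.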
# [4] = molecular target: T2, CYP2D6 (Homo sapiens, UniProt P10635); assay: Metabolic enzyme CYP2D6 inhibitory activity (inhibition measurement kit); type: in vitro ADME; settings: enzyme activity free of test compound as 100%, >10 means over 10 μM
# T2 construct: purchased BD Bioscience
# Description: Using a metabolic enzyme CYP2D6 inhibition measurement kit (BD Bioscience) and following the manual of the kit, the inhibitory activity of the test compound was measured. With the enzyme activity free of the test compound as 100%, the concentration (IC50) showing 50% inhibition was determined. The results are shown in Table 63 and Table 64, wherein “>10” means over 10 μM.
# [5] = system: PTH release; settings: OVX rat, cited from earlier work
# T2 sequence (P10635 whole entry): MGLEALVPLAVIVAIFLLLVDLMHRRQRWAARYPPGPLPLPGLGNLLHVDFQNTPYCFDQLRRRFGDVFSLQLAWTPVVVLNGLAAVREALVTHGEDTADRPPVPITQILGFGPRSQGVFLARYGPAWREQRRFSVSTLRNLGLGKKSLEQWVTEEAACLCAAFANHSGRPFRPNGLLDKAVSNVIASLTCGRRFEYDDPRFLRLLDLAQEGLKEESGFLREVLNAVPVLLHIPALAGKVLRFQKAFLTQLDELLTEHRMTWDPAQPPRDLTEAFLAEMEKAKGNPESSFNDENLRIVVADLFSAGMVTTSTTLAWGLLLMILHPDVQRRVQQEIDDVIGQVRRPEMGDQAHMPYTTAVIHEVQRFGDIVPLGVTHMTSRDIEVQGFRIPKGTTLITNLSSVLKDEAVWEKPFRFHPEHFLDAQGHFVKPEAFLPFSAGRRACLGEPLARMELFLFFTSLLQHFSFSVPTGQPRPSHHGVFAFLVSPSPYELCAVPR
Compound,IC50 [3] [nM],IC50 [4] [nM],other results
"C[C@]12CC[C@@H]3c4ccc(O)cc4CC[C@H]3[C@@H]1CC[C@@H]2O [Estradiol, reference compound]",–,–,"Blood ICTP concentration [1]: 20.93 ± 3.18 ng/mL; Change of blood PTH with time ([2]; Table 66, exclusive administration): increase in blood PTH was not observed; PTH (1–84) concentration 0.25 hr ([2]; day 16, 0.25 hr, exclusive administration (Group B estradiol; Group C Example 1-1 3 mg/kg oral)): 53.65 ± 56.31 pg/mL; PTH (1–84) concentration 0.5 hr ([2]; day 16, 0.5 hr, exclusive administration (Group B estradiol; Group C Example 1-1 3 mg/kg oral)): 56.55 ± 21.71 pg/mL; PTH (1–84) concentration 1 hr ([2]; day 16, 1 hr, exclusive administration (Group B estradiol; Group C Example 1-1 3 mg/kg oral)): 35.70 ± 21.30 pg/mL; PTH (1–84) concentration 2 hr ([2]; day 16, 2 hr, exclusive administration (Group B estradiol; Group C Example 1-1 3 mg/kg oral)): 41.94 ± 20.85 pg/mL; PTH (1–84) concentration 4 hr ([2]; day 16, 4 hr, exclusive administration (Group B estradiol; Group C Example 1-1 3 mg/kg oral)): 46.84 ± 14.62 pg/mL; PTH (1–84) concentration 0 hr ([2]; day 16, immediately before oral administration, exclusive administration (Group B estradiol 10 μg/kg s.c.; Group C Example 1-1 3 mg/kg oral)): 36.83 ± 14.45 pg/mL"
"CC(C)c1cc(-c2ccccc2[C@@H](C)OC[C@H](O)CNC(C)(C)Cc2ccc3ccccc3c2)ccc1C(=O)O [Example 1-32, 2′-[1-[(2R)-3-[[1-(naphthalen-2-yl)-2-methylpropan-2-yl]amino]-2-hydroxypropoxy]ethyl]-3-isopropylbiphenyl-4-carboxylic acid]",2,–,"IC50 ([4]; human, CYP2D6 inhibition measurement kit (BD Bioscience)): 10000 nM"
"CCc1cc(-c2ccccc2[C@@H](C)OC[C@H](O)CNC(C)(C)Cc2ccc(C)c(F)c2)ccc1C(=O)O [Example 1-33, 3-ethyl-2′-[1-[(2R)-3-[[1-(3-fluoro-4-methylphenyl)-2-methylpropan-2-yl]amino]-2-hydroxypropoxy]ethyl]biphenyl-4-carboxylic acid]",5,> 10000,–
"Cc1ccc(CC(C)(C)NC[C@@H](O)CO[C@H](C)c2ccccc2-c2ccc(C(=O)O)c(C(C)C)c2)cc1F [Example 1-34, 2′-[1-[(2R)-3-[[1-(3-fluoro-4-methylphenyl)-2-methylpropan-2-yl]amino]-2-hydroxypropoxy]ethyl]-3-isopropylbiphenyl-4-carboxylic acid]",5,> 10000,–
"C[C@@H](OC[C@H](O)CNC(C)(C)Cc1ccc2ccccc2c1)c1ccccc1-c1ccc(C(=O)O)c(Cl)n1 [Example 1-35, 2-chloro-6-[2-[1-[(2R)-3-[[1-(naphthalen-2-yl)-2-methylpropan-2-yl]amino]-2-hydroxypropoxy]ethyl]phenyl]pyridine-3-carboxylic acid]",10,> 10000,–
"rat PTH (1-34): rat parathyroid hormone fragment (1-34) administered to OVX rat (AVSEIQLMHNLGKHLASVERMQWLRKKLQDVHNF; Parathyroid hormone; UniProt P04089 32-65, looked up, fragment)",–,–,"Time until blood PTH returned to the original level ([5]; 5 μg/kg): 2 h; Blood PTH concentration in 30 minutes ([5]; rat PTH (1-34) 5 μg/kg, NPS-2143 100 μmol/kg): about 175 pg/ml"

# More lines, main results first:
IC50 [3] [nM],IC50 [4] [nM],Compound,other results
12,> 10000,"Cc1ccc(CC(C)(C)NC[C@@H](O)CO[C@H](C)c2ccccc2-c2ccc(C(=O)O)c(Cl)n2)cc1F [Example 1-39, 2-chloro-6-[2-[1-[(2R)-3-[[1-(3-fluoro-4-methylphenyl)-2-methylpropan-2-yl]amino]-2-hydroxypropoxy]ethyl]phenyl]pyridine-3-carboxylic acid]",–
2,> 10000,"CC(C)=Cc1cc(-c2ccccc2[C@@H](C)OC[C@H](O)CNC(C)(C)Cc2ccc(C)c(F)c2)ccc1C(=O)O [Example 1-48, 2′-[1-[(2R)-3-[[1-(3-fluoro-4-methylphenyl)-2-methylpropan-2-yl]amino]-2-hydroxypropoxy]ethyl]-3-(2-methyl-1-propenyl)biphenyl-4-carboxylic acid]",–
27,> 10000,"Cc1cc(C(=O)O)ccc1-c1ccccc1[C@@H](C)OC[C@H](O)CNC(C)(C)Cc1ccc(Cl)c(Cl)c1 [Example 1-57, 2′-[1-[(2R)-3-[[1-(3,4-dichlorophenyl)-2-methylpropan-2-yl]amino]-2-hydroxypropoxy]ethyl]-2-methylbiphenyl-4-carboxylic acid]",–
16,> 10000,"C[C@@H](OC[C@H](O)CNC(C)(C)Cc1ccc2ccccc2c1)c1ccccc1-c1ccc(C(=O)O)c(F)c1 [Example 1-59, 3-fluoro-2′-[1-[(2R)-3-[[1-(naphthalen-2-yl)-2-methylpropan-2-yl]amino]-2-hydroxypropoxy]ethyl]biphenyl-4-carboxylic acid]",–
7,> 10000,"COc1cc(CC(C)(C)NC[C@@H](O)CO[C@H](C)c2ccccc2-c2ccc(C(=O)O)c(C)c2)ccc1C [Example 1-73, 2′-[1-[(2R)-3-[[1-(3-methoxy-4-methylphenyl)-2-methylpropan-2-yl]amino]-2-hydroxypropoxy]ethyl]-3-methylbiphenyl-4-carboxylic acid]",–
27,> 10000,"COc1cc(-c2ccccc2[C@@H](C)OC[C@H](O)CNC(C)(C)Cc2ccc(C)c(F)c2)ccc1C(=O)O [Example 1-80, 2′-[1-[(2R)-3-[[1-(3-fluoro-4-methylphenyl)-2-methylpropan-2-yl]amino]-2-hydroxypropoxy]ethyl]-3-methoxybiphenyl-4-carboxylic acid]",–
57,> 10000,"CC(OC[C@H](O)CNC(C)(C)Cc1cnc2ccccc2c1)c1ccccc1Oc1ccc(C(=O)O)cc1 (stereo partly drawn) [Example 2-5, 4-[2-[1-[(2R)-3-[[1-(quinolin-3-yl)-2-methylpropan-2-yl]amino]-2-hydroxypropoxy]ethyl]phenoxy]benzoic acid]",–
